How the values were obtained:
[1] = biological target: T1, OATP1B3 (Homo sapiens, UniProt Q9NPD5); assay: Inhibition of transporter-mediated probe uptake in HEK293-OATP1B3 cells; format: in vitro ADME
T1 construct: host or cells: HEK293
T1 sequence (Q9NPD5 1-702): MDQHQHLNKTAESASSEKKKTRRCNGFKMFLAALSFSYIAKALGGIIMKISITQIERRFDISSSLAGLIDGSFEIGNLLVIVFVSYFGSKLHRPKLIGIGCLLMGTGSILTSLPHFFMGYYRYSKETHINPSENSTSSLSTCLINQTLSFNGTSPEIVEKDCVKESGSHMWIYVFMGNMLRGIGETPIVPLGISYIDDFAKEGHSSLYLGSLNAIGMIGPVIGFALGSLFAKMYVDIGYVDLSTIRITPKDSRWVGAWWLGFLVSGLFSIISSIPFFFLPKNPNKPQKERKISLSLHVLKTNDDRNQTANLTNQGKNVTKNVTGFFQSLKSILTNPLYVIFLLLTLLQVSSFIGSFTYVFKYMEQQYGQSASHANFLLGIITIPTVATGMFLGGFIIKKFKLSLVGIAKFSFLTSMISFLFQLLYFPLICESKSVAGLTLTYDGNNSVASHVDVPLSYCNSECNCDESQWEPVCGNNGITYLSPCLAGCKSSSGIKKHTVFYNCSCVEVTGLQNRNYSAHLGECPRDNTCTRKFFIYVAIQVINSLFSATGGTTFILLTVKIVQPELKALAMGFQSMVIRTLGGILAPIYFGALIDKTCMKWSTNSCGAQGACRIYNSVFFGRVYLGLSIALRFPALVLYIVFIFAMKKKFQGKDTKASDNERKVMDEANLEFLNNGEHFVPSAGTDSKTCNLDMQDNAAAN

[2] = biological target: T2, BSEP (Homo sapiens, UniProt O95342); assay: Inhibition of ATP-dependent probe uptake in Sf9 membrane vesicles; format: in vitro ADME; settings: BSEP-mediated ATP-dependent uptake of taurocholic acid
T2 construct: purchased Thermo Fisher Scientific; host or cells: Sf9
T2 sequence (O95342 whole entry): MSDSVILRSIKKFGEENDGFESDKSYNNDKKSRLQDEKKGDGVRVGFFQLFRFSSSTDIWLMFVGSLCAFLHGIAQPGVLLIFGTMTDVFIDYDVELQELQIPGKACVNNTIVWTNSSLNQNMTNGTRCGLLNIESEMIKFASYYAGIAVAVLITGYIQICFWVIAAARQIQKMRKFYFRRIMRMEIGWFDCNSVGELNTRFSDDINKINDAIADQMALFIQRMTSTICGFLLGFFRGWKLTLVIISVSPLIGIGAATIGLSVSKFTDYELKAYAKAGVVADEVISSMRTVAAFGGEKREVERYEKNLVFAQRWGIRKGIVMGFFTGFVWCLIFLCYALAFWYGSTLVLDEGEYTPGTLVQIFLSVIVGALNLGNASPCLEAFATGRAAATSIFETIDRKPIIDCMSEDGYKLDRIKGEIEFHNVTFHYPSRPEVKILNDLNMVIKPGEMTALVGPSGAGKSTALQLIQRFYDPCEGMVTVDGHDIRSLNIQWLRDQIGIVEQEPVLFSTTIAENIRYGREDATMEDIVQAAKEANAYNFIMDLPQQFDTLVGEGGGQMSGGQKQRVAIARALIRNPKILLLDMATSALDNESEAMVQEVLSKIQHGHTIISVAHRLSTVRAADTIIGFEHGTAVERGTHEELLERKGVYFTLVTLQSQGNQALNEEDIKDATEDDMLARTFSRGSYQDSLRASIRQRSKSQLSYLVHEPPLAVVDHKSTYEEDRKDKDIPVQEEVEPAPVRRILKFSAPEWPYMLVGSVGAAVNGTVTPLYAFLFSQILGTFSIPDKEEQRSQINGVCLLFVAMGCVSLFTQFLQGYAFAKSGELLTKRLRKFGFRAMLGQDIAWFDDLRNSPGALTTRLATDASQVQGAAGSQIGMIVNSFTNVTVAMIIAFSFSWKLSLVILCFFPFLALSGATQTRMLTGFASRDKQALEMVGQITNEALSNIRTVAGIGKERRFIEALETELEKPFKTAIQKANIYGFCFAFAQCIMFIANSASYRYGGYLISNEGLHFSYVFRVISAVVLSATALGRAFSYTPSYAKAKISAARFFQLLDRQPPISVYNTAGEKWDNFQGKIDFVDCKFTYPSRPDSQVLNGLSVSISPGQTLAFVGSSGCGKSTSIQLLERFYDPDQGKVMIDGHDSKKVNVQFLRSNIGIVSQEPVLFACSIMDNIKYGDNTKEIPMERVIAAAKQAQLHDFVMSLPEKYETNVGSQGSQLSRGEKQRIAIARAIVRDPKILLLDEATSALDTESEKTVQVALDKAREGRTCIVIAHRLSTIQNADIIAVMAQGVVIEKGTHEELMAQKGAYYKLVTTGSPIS

[3] = biological target: MDR1 P-gp (Homo sapiens, UniProt P08183); format: in vitro ADME; parameters: expressed in transfected cells; host or cells: LLC-PK1
Chain of MDR1 P-gp (P08183 whole entry): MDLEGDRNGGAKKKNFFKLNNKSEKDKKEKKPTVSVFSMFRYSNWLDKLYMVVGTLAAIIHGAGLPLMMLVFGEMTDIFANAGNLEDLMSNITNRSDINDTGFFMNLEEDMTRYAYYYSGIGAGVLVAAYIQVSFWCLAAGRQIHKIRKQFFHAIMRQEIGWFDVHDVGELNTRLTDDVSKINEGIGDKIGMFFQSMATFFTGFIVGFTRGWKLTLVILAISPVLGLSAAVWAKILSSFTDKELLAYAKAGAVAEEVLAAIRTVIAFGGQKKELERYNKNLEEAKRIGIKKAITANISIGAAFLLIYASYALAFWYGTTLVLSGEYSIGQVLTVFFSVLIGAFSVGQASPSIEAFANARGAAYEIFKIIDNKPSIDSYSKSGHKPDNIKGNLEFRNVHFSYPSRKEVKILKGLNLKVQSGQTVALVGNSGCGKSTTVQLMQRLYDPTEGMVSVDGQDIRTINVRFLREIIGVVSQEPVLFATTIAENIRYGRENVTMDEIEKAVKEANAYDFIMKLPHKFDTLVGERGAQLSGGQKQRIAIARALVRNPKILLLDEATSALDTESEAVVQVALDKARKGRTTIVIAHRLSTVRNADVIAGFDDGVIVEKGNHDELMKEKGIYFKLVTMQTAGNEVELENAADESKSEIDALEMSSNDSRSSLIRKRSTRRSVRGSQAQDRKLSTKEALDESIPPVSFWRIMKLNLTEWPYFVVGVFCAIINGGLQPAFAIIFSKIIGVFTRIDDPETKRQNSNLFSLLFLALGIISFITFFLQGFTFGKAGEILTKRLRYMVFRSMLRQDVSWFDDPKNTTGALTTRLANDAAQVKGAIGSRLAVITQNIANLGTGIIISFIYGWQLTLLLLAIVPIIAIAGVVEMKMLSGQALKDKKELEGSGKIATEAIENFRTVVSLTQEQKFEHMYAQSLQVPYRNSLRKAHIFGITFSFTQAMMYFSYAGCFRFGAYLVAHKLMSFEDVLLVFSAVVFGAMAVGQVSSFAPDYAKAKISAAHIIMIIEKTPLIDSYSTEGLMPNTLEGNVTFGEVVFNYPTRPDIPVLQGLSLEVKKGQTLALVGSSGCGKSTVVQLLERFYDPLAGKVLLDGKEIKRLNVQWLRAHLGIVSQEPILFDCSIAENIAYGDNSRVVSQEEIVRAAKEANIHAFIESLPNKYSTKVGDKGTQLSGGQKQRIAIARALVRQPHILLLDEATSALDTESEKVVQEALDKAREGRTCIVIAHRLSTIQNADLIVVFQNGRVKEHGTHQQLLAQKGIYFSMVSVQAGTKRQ

[4] = system: CYP3A4; assay: CYP induction in cryopreserved human hepatocytes; format: in vitro ADME; settings: for mRNA Mean Fold Change ± SD CYP3A4: 48 h, n = 3 donors, vs DMSO vehicle
[5] = biological target: T3, OCT2 (Homo sapiens, UniProt O15244); assay: Islatravir uptake as substrate, CHO-K1 vs CHO-K1-OCT2 cells; format: in vitro ADME
T3 construct: expressed in transfected cells; host or cells: CHO-K1
T3 sequence (O15244 1-555): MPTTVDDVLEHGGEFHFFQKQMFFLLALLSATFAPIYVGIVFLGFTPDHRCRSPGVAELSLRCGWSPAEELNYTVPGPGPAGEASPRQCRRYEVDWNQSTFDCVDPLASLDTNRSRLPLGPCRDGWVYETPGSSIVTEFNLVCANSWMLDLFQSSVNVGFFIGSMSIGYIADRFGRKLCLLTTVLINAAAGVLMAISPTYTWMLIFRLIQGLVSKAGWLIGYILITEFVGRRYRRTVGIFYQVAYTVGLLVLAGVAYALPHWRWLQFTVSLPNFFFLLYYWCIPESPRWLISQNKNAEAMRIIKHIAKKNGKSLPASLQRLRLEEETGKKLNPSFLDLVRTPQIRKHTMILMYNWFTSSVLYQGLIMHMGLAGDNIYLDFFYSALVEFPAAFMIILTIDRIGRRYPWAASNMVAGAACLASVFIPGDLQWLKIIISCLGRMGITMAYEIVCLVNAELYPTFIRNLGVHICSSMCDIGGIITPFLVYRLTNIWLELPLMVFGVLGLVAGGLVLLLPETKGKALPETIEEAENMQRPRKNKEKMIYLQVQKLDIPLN

[6] = Renal clearance after 1 mg/kg intravenous, rabbit; format: in vivo, female Dutch Belted rabbits; settings: 1 mg/kg intravenously
[7] = biological target: T4, OCT1 (Homo sapiens, UniProt O15245); assay: Inhibition of transporter-mediated probe uptake in CHO-K1-OCT1 cells; format: in vitro ADME
T4 construct: expressed in transfected cells; host or cells: CHO-K1
T4 sequence (O15245 1-554): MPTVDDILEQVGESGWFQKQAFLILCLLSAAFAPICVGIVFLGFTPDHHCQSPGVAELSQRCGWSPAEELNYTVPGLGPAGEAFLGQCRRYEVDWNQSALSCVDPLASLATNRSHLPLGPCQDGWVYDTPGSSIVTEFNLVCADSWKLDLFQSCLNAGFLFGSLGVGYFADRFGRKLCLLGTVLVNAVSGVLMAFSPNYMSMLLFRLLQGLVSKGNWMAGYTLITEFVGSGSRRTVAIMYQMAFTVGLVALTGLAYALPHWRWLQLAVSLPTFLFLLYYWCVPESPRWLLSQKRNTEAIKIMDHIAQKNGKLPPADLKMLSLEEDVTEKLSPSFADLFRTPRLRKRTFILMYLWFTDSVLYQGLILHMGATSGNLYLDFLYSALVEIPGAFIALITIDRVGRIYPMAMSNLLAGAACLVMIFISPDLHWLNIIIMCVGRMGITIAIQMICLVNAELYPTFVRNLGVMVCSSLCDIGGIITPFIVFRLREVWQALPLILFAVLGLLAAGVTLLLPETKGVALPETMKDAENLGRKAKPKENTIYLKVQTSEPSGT

[8] = biological target: CYP2D6 (Homo sapiens, UniProt P10635); assay: Time-dependent CYP inhibition in pooled human liver microsomes; format: in vitro ADME
Chain of CYP2D6 (P10635 whole entry): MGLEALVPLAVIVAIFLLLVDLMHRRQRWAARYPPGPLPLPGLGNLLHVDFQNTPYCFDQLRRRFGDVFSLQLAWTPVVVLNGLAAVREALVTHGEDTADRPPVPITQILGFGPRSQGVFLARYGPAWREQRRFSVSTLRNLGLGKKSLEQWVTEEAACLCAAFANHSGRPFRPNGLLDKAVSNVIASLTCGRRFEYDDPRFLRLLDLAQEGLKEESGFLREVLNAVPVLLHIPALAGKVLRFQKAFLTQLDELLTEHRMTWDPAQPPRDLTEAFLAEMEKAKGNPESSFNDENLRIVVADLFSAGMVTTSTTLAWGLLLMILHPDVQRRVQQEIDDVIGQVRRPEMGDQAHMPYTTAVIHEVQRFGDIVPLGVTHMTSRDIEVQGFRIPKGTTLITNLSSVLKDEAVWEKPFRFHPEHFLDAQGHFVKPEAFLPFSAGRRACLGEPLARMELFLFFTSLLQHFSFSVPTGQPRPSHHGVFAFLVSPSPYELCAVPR

[9] = biological target: CYP2C9 (Homo sapiens, UniProt P11712); assay: as above; format: in vitro ADME
Chain of CYP2C9 (P11712 whole entry): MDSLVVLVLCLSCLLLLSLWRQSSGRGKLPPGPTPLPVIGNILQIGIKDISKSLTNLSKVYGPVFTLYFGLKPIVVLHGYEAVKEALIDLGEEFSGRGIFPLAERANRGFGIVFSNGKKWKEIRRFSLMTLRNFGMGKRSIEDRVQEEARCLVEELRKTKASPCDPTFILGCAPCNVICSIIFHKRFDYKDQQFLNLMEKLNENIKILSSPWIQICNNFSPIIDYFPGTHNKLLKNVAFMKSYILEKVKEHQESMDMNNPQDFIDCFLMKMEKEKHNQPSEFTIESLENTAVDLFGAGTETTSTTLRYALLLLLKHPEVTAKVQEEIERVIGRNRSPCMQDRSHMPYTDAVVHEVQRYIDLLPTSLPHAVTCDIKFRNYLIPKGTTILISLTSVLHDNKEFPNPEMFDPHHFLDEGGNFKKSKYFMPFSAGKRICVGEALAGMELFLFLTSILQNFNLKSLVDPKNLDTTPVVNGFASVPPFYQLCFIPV

[10] = Projected human exposure for a 60 mg oral dose

With `C#C[C@]1(CO)O[C@@H](n2cnc3c(N)nc(F)nc32)C[C@@H]1O` [Islatravir, 4′-Ethynyl-2-fluoro-2′-deoxyadenosine] the IC50 ([1]; OATP1B3-mediated uptake of sulfobromophthalein, read-out: Islatravir IC50) was greater than 300 µM, the “Maximum Unbound Inlet Concentration (Iin,max,u) to IC50 Ratio” value ([1]; OATP1B3, 60 mg dose) was less than 0.035 and the “DDI Potential” value ([1]; OATP1B3 inhibition, FDA, EMA, PMDA guidance) was “Low risk”. For the same compound, the IC50 [2] was greater than 100 µM, the “DDI Potential” value ([3]; MDR1 P-gp inhibition, FDA, EMA, PMDA guidance) was “Low risk” and the IC50 ([3]; MDR1 P-gp-mediated digoxin transport, read-out: Islatravir IC50) was greater than 200 µM. The “Maximum Unbound Plasma Concentration (Imax,u) to IC50 Ratio” value ([3]; MDR1 P-gp, 60 mg, Cmax 1.01 µM, fu,p 0.96) was less than 0.005 µM, the “Intestinal Concentration (Igut) to IC50 Ratio” value ([3]; MDR1 P-gp, Igut = 60 mg/250 mL = 818 µM) was less than 4.1 µM and the “mRNA Mean Fold Change ± SD CYP3A4” value ([4]; 0.1 µM) was 0.6 ± 0.2. The “mRNA Mean Fold Change ± SD CYP3A4” value ([4]; 0.5 µM) was 0.6 ± 0.2, the “mRNA Mean Fold Change ± SD CYP3A4” value ([4]; 1 µM) was 0.6 ± 0.2 and the “mRNA Mean Fold Change ± SD CYP3A4” value ([4]; 5 µM) was 0.5 ± 0.1. For the same compound, the “mRNA Mean Fold Change ± SD CYP3A4” value ([4]; 10 µM) was 0.6 ± 0.1, the “mRNA Mean Fold Change ± SD CYP3A4” value ([4]; 20 µM) was 0.1 ± 0.1 and the “mRNA response relative to positive control” value ([4]; CYP3A4, each tested concentration 0.1-20 µM) was “less than 20%”. The “enzyme activity, fold of solvent control” value ([4]; CYP3A4 testosterone 6β-hydroxylation, all islatravir concentrations) was no more than 1.1 fold, the “Islatravir Uptake Transporter-Expressing Cells” value ([5]; CHO-K1-OCT2, 1 µM [3H]islatravir, 5 min, mean ± SD, n = 3) was 0.79 ± 0.14 pmole/10^6 Cells and the Fold-Difference ([5]; OCT2, uptake into transporter-expressing cells to control cells, 5 min) was 0.81. For the same compound, the “Islatravir Uptake Control Cells” value ([5]; OCT2 row, CHO-K1 control cells, 1 µM [3H]islatravir, 5 min, mean ± SD, n = 3) was 0.97 ± 0.01 pmole/10^6 Cells, the Conclusions ([5]; OCT2 substrate assessment) was “Non-substrate” and the “Renal Excretion (% Total Plasma Clearance)” value [6] was 31%. For the same compound, the CL renal ([6]; female, Dutch Belted, plasma and urine, iv, urine 0-48 h) was 5.3 mL/min/kg, the IC50 ([7]; OCT1-mediated uptake of metformin, read-out: Islatravir IC50) was greater than 300 µM and the “Maximum Unbound Inlet Concentration (Iin,max,u) to IC50 Ratio” value ([7]; OCT1, 60 mg dose) was less than 0.035. The “DDI Potential” value ([7]; OCT1 inhibition, FDA, EMA, PMDA guidance) was “Low risk”, the time-dependent inhibition ([8]; CYP2D6, pre-incubation of 10 and 50 µM for up to 30 min) was “no time-dependent inhibition” and the “DDI Potential” value ([8]; CYP2D6 time dependent inhibition) was “Low risk ^h”. The IC50 ([8]; time dependent, CYP2D6, read-out: Islatravir IC50) was greater than 50 µM, the time-dependent inhibition ([9]; CYP2C9, pre-incubation of 10 and 50 µM for up to 30 min) was “no time-dependent inhibition” and the “DDI Potential” value ([9]; CYP2C9 time dependent inhibition) was “Low risk ^h”. The IC50 ([9]; time dependent, CYP2C9, read-out: Islatravir IC50) was greater than 50 µM and the “projected maximum free concentration at the liver inlet” value [10] was “approximately 10 µM”.
